{"source": "patent US20250302974A1", "about": "“LECTIN-DRUG CONJUGATES” (UNICHEM LABORATORIES LIMITED, priority 2021, published 2025)", "key": {"U251 MG cells": {"system": "U251 MG cells", "test": "MTT cytotoxicity assay, U251 MG brain", "assay_type": "cell-based", "conditions": "Homo sapiens", "protocol": "(§1) The Untreated cells were used as Control. […] Cells were incubated for 3 h at 37° C. The supernatant was aspirated.\n(§2) The % Cytotoxicity was calculated using the formula: […]\n(§3) Selectivity Index was calculated using the formula:\n(§4) SI=IC50 in Normal cell/IC50 in cancer cell."}, "PA-1 cells": {"system": "PA-1 cells", "test": "MTT cytotoxicity assay, PA-1 ovary", "assay_type": "cell-based", "conditions": "Homo sapiens", "protocol": "as §1, §2, §3, §4"}, "PBMC": {"system": "PBMC", "test": "MTT cytotoxicity assay, PBMC normal", "assay_type": "cell-based", "conditions": "48 h", "protocol": "as §1, §2, §3, §4"}, "PANC-1 Pancreatic": {"system": "PANC-1 Pancreatic", "test": "Cytotoxic effect by MTT assay, 48 h", "conditions": "for Percent cytotoxicity wrt control: 48 h", "procedure,_shortened": "(§5)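 MTT read-out, A540 nm, formazan in DMSO. Cpd range 0.0001–10 μM; dox control 0.1–100 μM; untreated = reference.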"}, "HT29 Colon": {"system": "HT29 Colon", "test": "Cytotoxic effect by MTT assay, 48 h", "conditions": "read-out: IC50 Values; HT29 Colon, after 48 h of treatment"}, "AGS Stomach": {"system": "AGS Stomach", "test": "Cytotoxic effect by MTT assay, 48 h", "conditions": "read-out: IC50 Values; AGS Stomach, after 48 h of treatment", "procedure,_shortened": "as §5"}, "A549 cells": {"system": "A549 cells", "test": "MTT cytotoxicity assay, A549 lungs", "assay_type": "cell-based", "conditions": "Homo sapiens", "protocol": "as §1, §2, §3, §4"}, "MG-63 cells": {"system": "MG-63 cells", "test": "MTT cytotoxicity assay, MG-63 bone", "assay_type": "cell-based", "conditions": "Homo sapiens, MG-63, 48 h", "protocol": "as §1, §2, §3, §4"}, "PBMC Normal": {"system": "PBMC Normal", "test": "Cytotoxic effect by MTT assay, 48 h", "conditions": "for Percent cytotoxicity wrt control: PBMC, 48 h", "protocol": "Cells were treated with Test Items at various concentrations (0.0001 μM-10 μM) for 48 h. The cells corresponding to Positive Control group were treated with Doxorubicin at a concentration ranging from 0.1 μM-100 μM. The Untreated cells were used as Control. After 48 h of incubation, the effect of Test Items on cytotoxicity of cells was determined by MTT assay, the plates were taken out and 20 μl of 5 mg/m1 of MTT 3-(4,5-dimethythiazol-2-yl)-2,5-diphenyl tetrazolium bromide solution was added to all the wells. Cells were incubated for 3 h at 37° C. The supernatant was aspirated. 150 μl of DMSO was added to each well to dissolve formazan crystals. The absorbance of each well was then read at 540 nm using Synergy HT micro plate reader.\nThe % Cytotoxicity was calculated using the formula:\nWhere, X=Absorbance of cells treated with Test Item; R=Absorbance of Control cells (Untreated cells maintained in growth medium only)."}, "MDA-MB-231 cells": {"system": "MDA-MB-231 cells", "test": "MTT cytotoxicity assay, MDA-MB-231 breast", "assay_type": "cell-based", "conditions": "Homo sapiens", "protocol": "as §1, §2, §3, §4"}, "KB cells": {"system": "KB cells", "test": "MTT cytotoxicity assay, KB cervix", "assay_type": "cell-based", "conditions": "Homo sapiens, 48 h", "protocol": "as §1, §2, §3, §4"}}, "note": "Square brackets hold non-standard residues; d marks the D form. Peptide text beside a SMILES is read from it. * marks the point of attachment. Dolaproine = CO[C@@H]([C@@H]1CCCN1)[C@@H](C)C(=O)O; Dil = CC[C@H](C)[C@H](NC)[C@@H](CC(=O)O)OC; X1 = C[C@@H](N*)[C@@H](O)c1ccccc1; NMeV = CN[C@H](C(=O)O)C(C)C"}
{"smiles": "CC[C@H](C)[C@@H]([C@@H](CC(=O)N1CCC[C@H]1[C@H](OC)[C@@H](C)C(=O)N[C@H](C)[C@@H](O)c1ccccc1)OC)N(C)C(=O)[C@@H](NC(=O)[C@@H](NC)C(C)C)C(C)C", "note": "[MMAE, monomethyl auristatin E] (H-[NMeV]V[Dil][Dolaproine]-X1)", "values": [{"measurement": "cytotoxicity at 0.0001 µM", "setting": "U251 MG cells; U-251, 0.0001 μm, 48 h, read-out: Percent cytotoxicity wrt control", "value": 77.8, "unit": "%"}, {"measurement": "cytotoxicity at 0.001 µM", "setting": "U251 MG cells; U-251, 0.001 μm, 48 h, read-out: Percent cytotoxicity wrt control", "value": 52.5, "unit": "%"}, {"measurement": "cytotoxicity at 0.01 µM", "setting": "U251 MG cells; U-251, 0.01 μm, 48 h, read-out: Percent cytotoxicity wrt control", "value": 58.6, "unit": "%"}, {"measurement": "cytotoxicity at 0.1 µM", "setting": "U251 MG cells; U-251, 0.1 μm, 48 h, read-out: Percent cytotoxicity wrt control", "value": 63.1, "unit": "%"}, {"measurement": "cytotoxicity at 1 µM", "setting": "U251 MG cells; U-251, 1 μm, 48 h, read-out: Percent cytotoxicity wrt control", "value": 64.7, "unit": "%"}, {"measurement": "cytotoxicity at 10 µM", "setting": "U251 MG cells; U-251, 10 μm, 48 h, read-out: Percent cytotoxicity wrt control", "value": 71, "unit": "%"}, {"measurement": "IC50", "setting": "U251 MG cells; U-251, 48 h", "value": 0.2, "unit": "nM"}, {"measurement": "IC50", "setting": "PA-1 cells; PA-1, 48 h", "value": 30.1, "unit": "nM"}, {"measurement": "cytotoxicity at 0.0001 µM", "setting": "PA-1 cells; PA-1, 0.0001 μm, 48 h, read-out: Percent cytotoxicity wrt control", "value": 13.4, "unit": "%"}, {"measurement": "cytotoxicity at 0.001 µM", "setting": "PA-1 cells; PA-1, 0.001 μm, 48 h, read-out: Percent cytotoxicity wrt control", "value": 57.5, "unit": "%"}, {"measurement": "cytotoxicity at 0.01 µM", "setting": "PA-1 cells; PA-1, 0.01 μm, 48 h, read-out: Percent cytotoxicity wrt control", "value": 50, "unit": "%"}, {"measurement": "cytotoxicity at 0.1 µM", "setting": "PA-1 cells; PA-1, 0.1 μm, 48 h, read-out: Percent cytotoxicity wrt control", "value": 57.5, "unit": "%"}, {"measurement": "cytotoxicity at 1 µM", "setting": "PA-1 cells; PA-1, 1 μm, 48 h, read-out: Percent cytotoxicity wrt control", "value": 61.7, "unit": "%"}, {"measurement": "cytotoxicity at 10 µM", "setting": "PA-1 cells; PA-1, 10 μm, 48 h, read-out: Percent cytotoxicity wrt control", "value": 58.3, "unit": "%"}, {"measurement": "IC50", "setting": "PBMC; PBMC (normal)", "value": "> 10000", "unit": "nM"}, {"measurement": "cytotoxicity at 0.0001 µM", "setting": "PBMC; PBMC, 0.0001 μm, read-out: Percent cytotoxicity wrt control", "value": -2.7, "unit": "%"}, {"measurement": "Percent cytotoxicity wrt control", "setting": "PANC-1 Pancreatic; PANC-1, 0.0001 μM", "value": 38.1, "unit": "%"}, {"measurement": "Percent cytotoxicity wrt control", "setting": "PANC-1 Pancreatic; PANC-1, 0.001 μM", "value": 41, "unit": "%"}, {"measurement": "Percent cytotoxicity wrt control", "setting": "PANC-1 Pancreatic; PANC-1, 0.01 μM", "value": 64.1, "unit": "%"}, {"measurement": "Percent cytotoxicity wrt control", "setting": "PANC-1 Pancreatic; PANC-1, 0.1 μM", "value": 67.7, "unit": "%"}, {"measurement": "Percent cytotoxicity wrt control", "setting": "PANC-1 Pancreatic; PANC-1, 10 μM", "value": 69.7, "unit": "%"}, {"measurement": "IC50", "setting": "PANC-1 Pancreatic; read-out: IC50 Values, PANC-1 Pancreatic, after 48 h of treatment", "value": 1.5, "unit": "nM"}, {"measurement": "IC50", "setting": "HT29 Colon", "value": 50, "unit": "nM"}, {"measurement": "IC50", "setting": "AGS Stomach", "value": 1540, "unit": "nM"}, {"measurement": "IC50", "setting": "A549 cells; A549, 48 h", "value": 10, "unit": "nM"}, {"measurement": "cytotoxicity at 0.0001 µM", "setting": "A549 cells; A549, 0.0001 μm, 48 h, read-out: Percent cytotoxicity wrt control", "value": 27.9, "unit": "%"}, {"measurement": "cytotoxicity at 0.001 µM", "setting": "A549 cells; A549, 0.001 μm, 48 h, read-out: Percent cytotoxicity wrt control", "value": 39.3, "unit": "%"}, {"measurement": "cytotoxicity at 0.01 µM", "setting": "A549 cells; A549, 0.01 μm, 48 h, read-out: Percent cytotoxicity wrt control", "value": 43.5, "unit": "%"}, {"measurement": "cytotoxicity at 0.1 µM", "setting": "A549 cells; A549, 0.1 μm, 48 h, read-out: Percent cytotoxicity wrt control", "value": 58.8, "unit": "%"}, {"measurement": "cytotoxicity at 1 µM", "setting": "A549 cells; A549, 1 μm, 48 h, read-out: Percent cytotoxicity wrt control", "value": 83.6, "unit": "%"}, {"measurement": "cytotoxicity at 10 µM", "setting": "A549 cells; A549, 10 μm, 48 h, read-out: Percent cytotoxicity wrt control", "value": 75.8, "unit": "%"}, {"measurement": "IC50", "setting": "MG-63 cells", "value": 0.1, "unit": "nM"}, {"measurement": "Percent cytotoxicity wrt control", "setting": "PBMC Normal; 0.0001 μM", "value": "−2.7", "unit": "%"}, {"measurement": "Percent cytotoxicity wrt control", "setting": "PBMC Normal; 0.001 μM", "value": 29.8, "unit": "%"}, {"measurement": "Percent cytotoxicity wrt control", "setting": "PBMC Normal; 0.01 μM", "value": 34.3, "unit": "%"}, {"measurement": "Percent cytotoxicity wrt control", "setting": "PBMC Normal; 0.1 μM", "value": 34.1, "unit": "%"}, {"measurement": "Percent cytotoxicity wrt control", "setting": "PBMC Normal; 1 μM", "value": 26.6, "unit": "%"}, {"measurement": "Percent cytotoxicity wrt control", "setting": "PBMC Normal; 10 μM", "value": 32.5, "unit": "%"}, {"measurement": "IC50", "setting": "PBMC Normal; read-out: IC50 Values, PBMC Normal, after 48 h of treatment", "value": "> 10000", "unit": "nM"}, {"measurement": "IC50", "setting": "MDA-MB-231 cells; MDA-MB-231, 48 h", "value": "> 10000", "unit": "nM"}, {"measurement": "cytotoxicity at 0.0001 µM", "setting": "MDA-MB-231 cells; MDA-MB-231, 0.0001 μm, 48 h, read-out: Percent cytotoxicity wrt control", "value": 11.3, "unit": "%"}, {"measurement": "cytotoxicity at 0.001 µM", "setting": "MDA-MB-231 cells; MDA-MB-231, 0.001 μm, 48 h, read-out: Percent cytotoxicity wrt control", "value": 13.3, "unit": "%"}, {"measurement": "cytotoxicity at 0.01 µM", "setting": "MDA-MB-231 cells; MDA-MB-231, 0.01 μm, 48 h, read-out: Percent cytotoxicity wrt control", "value": 28.9, "unit": "%"}, {"measurement": "cytotoxicity at 0.1 µM", "setting": "MDA-MB-231 cells; MDA-MB-231, 0.1 μm, 48 h, read-out: Percent cytotoxicity wrt control", "value": 23.8, "unit": "%"}, {"measurement": "cytotoxicity at 1 µM", "setting": "MDA-MB-231 cells; MDA-MB-231, 1 μm, 48 h, read-out: Percent cytotoxicity wrt control", "value": 16.8, "unit": "%"}, {"measurement": "cytotoxicity at 10 µM", "setting": "MDA-MB-231 cells; MDA-MB-231, 10 μm, 48 h, read-out: Percent cytotoxicity wrt control", "value": 26.4, "unit": "%"}, {"measurement": "cytotoxicity at 0.0001 µM", "setting": "KB cells; 0.0001 μm, read-out: Percent cytotoxicity wrt control", "value": 90.5, "unit": "%"}, {"measurement": "cytotoxicity at 0.001 µM", "setting": "KB cells; 0.001 μm, read-out: Percent cytotoxicity wrt control", "value": 95.8, "unit": "%"}, {"measurement": "cytotoxicity at 0.01 µM", "setting": "KB cells; 0.01 μm, read-out: Percent cytotoxicity wrt control", "value": 96.1, "unit": "%"}, {"measurement": "cytotoxicity at 0.1 µM", "setting": "KB cells; 0.1 μm, read-out: Percent cytotoxicity wrt control", "value": 96.3, "unit": "%"}, {"measurement": "cytotoxicity at 1 µM", "setting": "KB cells; 1 μm, read-out: Percent cytotoxicity wrt control", "value": 96.2, "unit": "%"}, {"measurement": "cytotoxicity at 10 µM", "setting": "KB cells; 10 μm, read-out: Percent cytotoxicity wrt control", "value": 96.3, "unit": "%"}, {"measurement": "IC50", "setting": "KB cells", "value": 0.1, "unit": "nM"}]}
